These results are taken from patent EP2792360A1, “(1aR,12bS)-8-cyclohexyl-11-fluoro-N-((1-methylcyclopropyl)sulfonyl)-1a-((3-methyl-3,8-diazabicyclo[3.2.1]oct-8-yl)carbonyl)-1,1a,2,2b-tetrahydrocyclopropa[d]indolo[2,1-a][2]benzazepine-5-carboxamide for use in treating HCV” (IP Gesellschaft für Management mbH, priority 2013, dated 2014).

In test [1] the test system is blood uric acid. In words: Multiple dose study of TS dispersion, 14 days (Example 6): blood uric acid level. The format is in vivo, healthy subjects and elderly subjects. The procedure:
Example 3 - Preparation of dispersions for oral administration: (a) Using the tosylate salt of 4-r2-(5-Amino-1 H-pyrazol-4-yl)-4-chlorophenoxyl-5- chloro-2-fluoro-N-(1,3-thiazol-4-yl)benzenesulfonamide: Methylcellulose vehicle (0.5% w/v) was prepared as follows. Water for irrigation (600 ml.) was heated in a beaker to between 80°C and 90°C. Methylcellulose (5 g) powder was added, with stirring, until the powder had fully dispersed. The dispersion was then transferred into an ice bath and cooled rapidly whilst adding chilled water for irrigation (400 ml.) to give a clear solution. The dispersion for oral administration was prepared by weighing the required quantity of 4-[2-(5-amino-1 H-pyrazol-4-yl)-4-chlorophenoxy]-5-chloro-2-fluoro-N- (1,3-thiazol-4-yl)benzenesulfonamide tosylate (from 10mg to 2400mg) into an appropriately sized glass amber dosing bottle and adding a volume of vehicle (0.5% (w/v) methylcellulose). The volume of vehicle added was dependant on dose: 15 ml. for doses of drug in the range 10 mg to < 30 mg; and 50 ml. for doses of drug in the range 30 mg to 2400 mg, so that the drug concentration was in the range 0.6 to 50 mg/mL. The dispersion was stored at 2 to 8°C and administered within 72 hours directly from the dosing containers. After administration the glass dosing bottle was rinsed with two approximate equal aliquots of drinking water such that the total volume administered, including dosing volume, was 240 ml_. (b) Using the SDD of 4-[2-(5-Amino-1 H-pyrazol-4-yl)-4-chlorophenoxyl-5-chloro-2- fluoro-N-(1,3-thiazol-4-yl)benzenesulfonamide: Methylcellulose vehicle 0.5% (w/v) was prepared using the procedure set out in Example 3(a) above. The dispersion for oral administration was prepared by weighing the required quantity of 4-[2-(5-amino-1 H-pyrazol-4-yl)-4-chlorophenoxy]-5-chloro-2-fluoro-N- (1,3-thiazol-4-yl)benzenesulfonamide SDD into an appropriately sized glass amber dosing bottle and adding a volume of vehicle (0.5% (w/v) Methylcellulose). The volume of vehicle added was dependent on dose: 20 ml. to 100 ml. over the dose range 10 mg to 2400 mg, so that the drug concentration was in the range 0.6 to 50 mg/mL. The dispersion was stored at 2 to 8°C and administered within 72 hours directly from the dosing containers. After administration the glass dosing bottle was rinsed with two approximate equal aliquots of drinking water such that the total volume administered, including dosing volume, was 240 ml_. […] Uric acid measurements were performed using a commercial colorimetric assay kit (Beckman Coulter). […]

Test [2] concerns uric acid in urine. In words: Multiple dose study of TS dispersion, 14 days (Example 6): uric acid excretion in urine. It counts as in vivo, healthy subjects and elderly subjects. Conditions: 24 hour urine, Days 1, 6, 14, 16; returns to baseline by Day 16. The procedure:
Example 6 - Multiple dose study: a double-blind, randomized, placebo-controlled, study in healthy subjects and elderly subjects: Multiple oral doses of 4-[2-(5-amino-1 H-pyrazol-4-yl)-4-chlorophenoxy]-5-chloro-2-fluoro-N-(1,3-thiazol-4-yl)benzenesulfonamide TS dispersion for oral administration, and placebo, were investigated for 14 days, as follows: • healthy subjects, 300 mg twice daily (BID,) • healthy subjects, 450 mg BI D, and • elderly subjects, 300 mg BID.
Subjects were fasted overnight prior to the morning doses and for at least 2 hours prior to the evening doses. Food was withheld for at least 2 hours postdose. A total of 49 subjects were enrolled in the study of which 39 received 4-[2-(5-amino-1 H-pyrazol-4-yl)-4-chlorophenoxy]-5-chloro-2-fluoro-N-(1,3-thiazol-4-yl)benzenesulfonamide TS and 10 received placebo. […]
Concentrations of uric acid in blood decreased following dosing with 4-[2-(5-amino-1 H-pyrazol-4-yl)-4-chlorophenoxy]-5-chloro-2-fluoro-N-(1,3-thiazol-4-yl)benzenesulfonamide. All subjects had blood uric acid values above the LLN on Day 1. […] Uric acid was also measured in urine collected over 24 hours prior to dosing on Day 1, and then on Days 6, 14 and 16. The percent excreted fraction of uric acid in urine was calculated and analyzed with a linear mixed effects model.

Test [3] has as its system genotype lb HCV replicon (Huh-7). In words: microbe, parasite or virus in culture. Conditions: Hepatitis C virus, Huh-7, 72 h. How it is done:
The protein was expressed with an 18 amino acid C-terminal truncation to enhance the solubility. The E. coli competent cell line BL21(DE3) was used for expression of the protein. […] The cultures were cooled to 20 °C and induced with 1 mM IPTG. […] After addition of the lysis buffer, frozen cell pellets were resuspended using a tissue homogenizer. To reduce the viscosity of the sample, aliquots of the lysate were sonicated on ice using a microtip attached to a Branson sonicator. […] The protein was purified using two sequential chromatography steps: Heparin sepharose CL-6B and polyU sepharose 4B. […] Each column was eluted with a NaCl gradient which varied in length from 5-50 column volumes depending on the column type. […] The enzyme was aliquoted and stored at -80 °C. […] Unbound primer was removed after centrifugation. […] After incubating for at least 15 minutes, plates were read on an Amersham LEADseeker multimodality imaging system. IC50 values for compounds were determined using ten different [I]. […] Cell lines. […] These cells were maintained in Dulbecco's modified Eagle medium (DMEM) containing 10% FBS, 100 U/mL penicillin/streptomycin and 1.0 mg/mL G418. […]

SMILES strings stand for the structures.

For the molecule `Nc1[nH]ncc1-c1cc(Cl)ccc1Oc1cc(F)c(S(=O)(=O)Nc2cscn2)cc1Cl` [4-[2-(5-amino-1H-pyrazol-4-yl)-4-chlorophenoxy]-5-chloro-2-fluoro-N-(1,3-thiazol-4-yl)benzenesulfonamide], the “day on which median blood uric acid concentrations fell below LLN” value in test [1] (450 mg BID) is “Day 3”. The “median blood uric acid concentration relative to LLN” value in test [1] (all cohorts (300 mg and 450 mg BID), Day 6) was “below the LLN”. Also, in test [1] (following dosing, given as TS dispersion 300 mg or 450 mg BID), the “Concentrations of uric acid in blood” value is given as “decreased”. Moreover, the “time after cessation of dosing until blood uric acid returned to above the LLN for all subjects” value in test [1] (i.e. by Day 16) was at most 2 days. Besides, the “excreted fraction of uric acid in urine” value in test [2] is reported as “increases during dosing”.
Consider `CN1CC2CCC(C1)N2C(=O)[C@]12C[C@H]1c1cc(F)ccc1-c1c(C3CCCCC3)c3ccc(C(=O)NS(=O)(=O)C4(C)CC4)cc3n1C2` [Compound 2, (1aR,12bS)-8-cyclohexyl-11-fluoro-N-((1-methylcyclopropyl)sulfonyl)-1a-((3-methyl-3,8-diazabicyclo[3.2.1]oct-8-yl)carbonyl)-1,1a,2,12b-tetrahydrocyclopropa[d]indolo[2,1-a][2]benzazepine-5-carboxamide], for which the midpoint of the response in test [3], the EC50, lay at 7 nM.
